# Reference: US5122381A, “Composition and process for dissolving a sparingly water-soluble flavonoid” (San-Ei Chemical Industries, Ltd., priority 1989, dated 1992)
# Key:
# [1] = Dissolution of Rutin: rutin remaining in solution (supernatant, high-speed liquid chromatography); type: physicochemical; settings: 13.5 wt. % of Glycoside I relative to rutin; standing 14 days at room temperature
# Description: (§1) Water (100 ml) containing 12 W/V% of granulated sugar and 0.3 W/V% of citric acid was poured into each of five test tubes (100 ml) No. 1 to 5, to which 0.4 ml of rutin (10 W/V%) solution in ethanol (equivalent to 0.04 g of rutin) was added. Immediately thereafter, mixed was a solution of the Glycoside I (13.4 W/V%) in ethanol in amounts of 0.024 ml, 0.032 ml, 0.04 ml and 0.05 ml respectively to the test tubes No. 2 to 5. These amounts were equivalent to 8.0 wt. %, 10.8 wt. %, 13.5 wt. % and 16.0 wt. %, respectively relative to the amount of rutin.
# (§2) All of these mixtures including No. 1 to which the Glycoside I had not been added were transparent when observed immediately after mixing. After standing for 24 hours, some mixtures were recognized to have precipitation. Standing was continued for 14 days at room temperature in observing precipitation states of the mixtures. On completion of this standing, rutin concentration of each supernatant liquid of the mixtures was measured using high-speed liquid chromatography.
# [2] = Dissolution of Rutin: precipitation observed on standing with Glycoside I; type: physicochemical; design: key: ++: indicating the greatest degree of precipitation; +: precipitation was observed; -: indicating no observed precipitation; settings: 0.04 wt % rutin
# Description: as §1, §2
# The "+" and "-" signs in Table 1 denote comparative amounts of precipitation of the rutin. The range extends from "++", indicating the greatest degree of precipitation, down to "-", indicating no observed precipitation.
smiles,measurement,setting,value
C[C@@H]1O[C@@H](OC[C@H]2O[C@@H](Oc3c(-c4ccc(O)c(O)c4)oc4cc(O)cc(O)c4c3=O)[C@H](O)[C@@H](O)[C@@H]2O)[C@H](O)[C@H](O)[C@H]1O [Rutin],rutin stably dissolved in water,[1],at least 0.04 wt. %
same,Precipitation Observed,"[2]; No. 1, Glycoside I 0 wt % relative to rutin, 1st day",+ +
same,Precipitation Observed,"[2]; No. 1, Glycoside I 0 wt % relative to rutin, 3rd day",+ +
same,Precipitation Observed,"[2]; No. 1, Glycoside I 0 wt % relative to rutin, 6th day",+ +
same,Precipitation Observed,"[2]; No. 1, Glycoside I 0 wt % relative to rutin, 14th day",+ +
same,Precipitation Observed,"[2]; No. 2, Glycoside I 8.0 wt % relative to rutin, 1st day",+
same,Precipitation Observed,"[2]; No. 2, Glycoside I 8.0 wt % relative to rutin, 3rd day",+
same,Precipitation Observed,"[2]; No. 2, Glycoside I 8.0 wt % relative to rutin, 6th day",+
same,Precipitation Observed,"[2]; No. 2, Glycoside I 8.0 wt % relative to rutin, 14th day",+
